In publication PMC7129073 (Clinical Microbiology and Infection, 2015):
In brackets after ≈: the same amount, converted by molar mass. Like-named read-outs stand apart in the source and are kept apart here.

Tests used:
[1] = test system: S. aureus; test: E-test susceptibility; assay type: cell-based, Staphylococcus aureus
[2] = test system: glycopeptide intermediate Staphylococcus species (GISS); test: VITEK II, screening plate and E test, blood isolates; assay type: cell-based, coagulase-negative Staphylococci; conditions: for MIC: Staphylococcus
[3] = test system: foreign body infection Staphylococcus epidermidis strains; test: NCCLS disk diffusion; assay type: cell-based; conditions: 86 strains
[4] = test system: S. aureus; test: susceptibility of bloodstream isolates; assay type: cell-based
[5] = test system: Staphylococci epidermidis; test: E-test, classical method and macromethod; assay type: cell-based, Staphylococcus epidermidis; conditions: four strains: 8, 8, 12, 12; BHI agar, 2.0 McFarland, 48 h
[6] = test system: E. faecium; test: E-test susceptibility; assay type: cell-based, Enterococcus faecium
[7] = test system: MSSA; test: Agar dilution MIC; assay type: cell-based, Staphylococcus aureus
[8] = test system: MDR-MRSA; test: MIC, MBC; assay type: cell-based, Staphylococcus aureus; conditions: time kill, two strains
[9] = test system: agr− group II S. aureus (RN9120); test: in vitro pharmacodynamic model, MIC by E-test and microdilution; assay type: cell-based; conditions: Staphylococcus aureus, read-out: post-exposure MIC
[10] = test system: Staphylococcus haemolyticus; test: E-test, classical method and macromethod; assay type: cell-based
[11] = test system: S. aureus 10; test: in vitro dynamic model, enrichment of resistant mutants; assay type: cell-based
[12] = test system: CA-MRSA; test: MIC, MBC; assay type: cell-based, Staphylococcus aureus; conditions: time kill, two strains
[13] = test system: enterococci; test: Disk diffusion and E-test, faecal isolates of cancer patients; assay type: cell-based, Enterococcus; conditions: 38 strains
[14] = test system: S. pneumoniae; assay type: cell-based, Streptococcus pneumoniae
[15] = test system: MRSA; test: Disk diffusion; assay type: cell-based, Staphylococcus aureus; conditions: 200 isolates
[16] = test system: viridans group streptococci (VGS); test: MIC; assay type: cell-based
[17] = test system: viridans group streptococci (VgS) and Streptococcus bovis; test: Broth microdilution and disk diffusion; assay type: cell-based; conditions: nine species
[18] = test system: agr+ group II S. aureus (RN6607); test: in vitro pharmacodynamic model, MIC by E-test and microdilution; assay type: cell-based; conditions: Staphylococcus aureus, 72 h, read-out: post-exposure MIC
[19] = test system: MRSA; test: Agar dilution MIC; assay type: cell-based, Staphylococcus aureus
[20] = test system: S. maltophilia; test: Susceptibility of respiratory isolates of cancer patients; assay type: cell-based, Stenotrophomonas maltophilia; conditions: 40 patients
[21] = test system: Acinetobacter; test: Disk diffusion; assay type: cell-based; conditions: 37 isolates selected as resistant to beta-lactams
[22] = test system: Stenotrophomonas maltophilia; test: E-test, sputum isolates of children with cystic fibrosis; assay type: cell-based; conditions: 2000–2004

Cc1onc(-c2ccccc2)c1C(=O)N[C@@H]1C(=O)N2[C@@H]1SC(C)(C)[C@@H]2C(=O)O [oxacillin]
Susceptibility ([1]; ICU, SRGA breakpoints, tigecycline tentative S ≤2 μg/ml): 97%
Susceptibility ([1]; non-ICU): 98%
% isolates resistant ([1]; total): 2%
sensitive strains ([2]; six out of 73): 8,2%
% resistant [3]: More than 30%
resistance [4]: 43%

CN[C@H](CC(C)C)C(=O)N[C@H]1C(=O)N[C@@H](CC(N)=O)C(=O)N[C@H]2C(=O)N[C@H]3C(=O)N[C@H](C(=O)N[C@H](C(=O)O)c4cc(O)cc(O)c4-c4cc3ccc4O)[C@H](O)c3ccc(c(Cl)c3)Oc3cc2cc(c3O[C@@H]2O[C@H](CO)[C@@H](O)[C@H](O)[C@H]2O[C@H]2C[C@](C)(N)[C@H](O)[C@H](C)O2)Oc2ccc(cc2Cl)[C@H]1O [vancomycin]
MIC, macromethod of E-test [5]: 12 µg/mL
Susceptibility ([6]; ICU): 93%
Susceptibility ([6]; non-ICU): 98%
% isolates resistant (VRE) ([6]; total): 4%
MIC50 ([7]; Staphylococcus aureus, MSSA): < 0.5 µg/mL
MIC90 ([7]; Staphylococcus aureus, MSSA): < 1 µg/mL
MIC range ([7]; n = 200): 0.5 to 1 µg/mL (≈ 0.345 to 0.69 µM)
Δ Log10 CFU/ml [8]: −3.97 Log10 CFU/ml
MIC [9]: 6 µg/mL (≈ 4.14 µM)
MIC ([10]; read-out: MIC, classical E-test): 3 µg/mL (≈ 2.07 µM)
MIC ([10]; read-out: MIC, macromethod of E-test): 32 µg/mL (≈ 22.1 µM)
AUC/MIC predicted to protect from selection of resistant mutants [11]: 256 h
AUC/MIC at which resistant mutants were selected ([11]; five-day treatment): 32 to 128 h
Δ Log10 CFU/ml [12]: −3.78 Log10 CFU/ml
sensitivity of all isolated strains [13]: All the isolated strains were sensitive
resistant [14]: 0%
sensitivity [15]: All isolates were sensitive
MIC ([2]; read-out: MIC of intermediate sensitive strains): 8 to 12 µg/mL
MIC ([2]; read-out: MIC of resistant strain): 32 µg/mL
MIC50 [16]: 0.5 µg/mL (≈ 0.345 µM)
MIC90 [16]: 1 µg/mL (≈ 0.69 µM)
tolerant isolates ([16]; 83 isolates, tolerance to VA and TP): 77.6%
susceptibility of all isolates ([16]; NCCLS): All isolates were susceptible
% S, range between species [17]: 100.0%
MIC [18]: ≤ 2 µg/mL
MIC50 ([19]; Staphylococcus aureus, MRSA): < 1 µg/mL
MIC90 ([19]; Staphylococcus aureus, MRSA): < 1 µg/mL
MIC range ([19]; n = 50): 1 µg/mL (≈ 0.69 µM)

ticarcillin/clavulanic acid
Susceptible isolates [20]: 65%
resistant isolates [21]: 32.4%
sensitivity [22]: 59.3%
